From PMC11944515, “Host-Mediated Antimicrobial Effects and NLRP3 Inflammasome Modulation by Caulerpin and Its Derivatives in Macrophage Models of Mycobacterial Infections” (Microorganisms, 2025)

Experiments:
RAW 264.7 cells = experiment: Direct effects on RAW 264.7 cell viability (MTT); type: cell-based, murine
Procedure: The direct effects of CP and its analogues on RAW 264.7 viability were evaluated using the MTT method. RAW 264.7 cells were seeded at 1 × 10^4 cells/well (for 24 h incubation) and 5 × 10^3 cells/well (for 48 h incubation) and incubated overnight to allow adhesion. The culture medium was carefully aspirated and replaced with 100 μL DMEM plus 100 μL of test compound solutions, yielding final concentrations ranging from 3.25 to 30 µM (DMSO 1%, v/v). After 24 or 48 h of exposure to test compounds, cells were incubated with MTT (0.5 mg/mL) for 3 h. The resulting formazan crystals were dried, dissolved in DMSO, and absorbance was measured at 570 nm using a microplate reader (EL800, BioTek, Winooski, VT, USA). The precipitated purple formazan crystals were directly proportional to the number of metabolically active viable cells. The cell viability was then calculated as: Cell viability (%) = (Sample absorbance/Control absorbance) × 100. Data were expressed as mean of cell viability ± standard error of the mean from three to four independent experiments performed in triplicate.

[1] = tested on: Mycobacterium smegmatis mc2155; experiment: M. smegmatis susceptibility by CFU enumeration; type: cell-based; details: 24 h incubation, CFU
[2] = tested on: M. smegmatis within RAW 264.7 macrophages; experiment: Preventive effects (pre-incubation) in M. smegmatis-infected RAW 264.7 cells (CFU); type: cell-based, Mycobacterium smegmatis; details: for reduction of bacterial loads after pre-incubation, M. smegmatis / reduction of CFU counts after re-treatment, M. smegmatis: 15 μM; for reduction of CFU counts after re-treatment, M. smegmatis: pre-incubation and re-treatment, 12 h after infection
Procedure: For the second in vitro cellular infection test with M. smegmatis, RAW 264.7 were seeded in 96-well culture plates at a density of 1 × 10^4 cells/well in DMEM medium (with 10% FBS, without antibiotics) and incubated overnight at 37 °C with 5% CO2. Cells were pre-incubated with CP (15 μM), CA (30 μM), DE (15 μM), and DP (15 μM) for 8 h in DMEM medium. Infection of RAW 264.7 cells with M. smegmatis was performed at a multiplicity of infection of 1:1 for 2 h at 37 °C with 5% CO2 [20]. Infected RAW 264.7 were then lysed with 0.1% Triton–X100, and these suspensions were diluted and plated on LB agar. Remaining wells were then re-treated with the tested substances in DMEM medium. Macrophages were lysed after 12 h, and these suspensions were diluted and plated on LB prior to CFU counting. CFU/well was determined as previously described in the infection experiments using macrophages and M. smegmatis.

M. tuberculosis H37Ra = experiment: M. tuberculosis susceptibility by CFU enumeration; type: cell-based, Mycobacterium tuberculosis; details: H37Ra, 48 h, CFU
Procedure: Next, CP, CA, and DE were diluted in Middlebrook 7H9 plus 10% OADC for the cellular susceptibility assay with M. tuberculosis H37Ra to yield concentrations up to 15 µM, 30 µM, and 15 µM, respectively. RIF at 0.03 µM was used as a positive control. The final DMSO concentration in all wells was 2.5%. The M. tuberculosis suspension was diluted in 7H9 plus 10% OADC to achieve an optical density of 0.006 at 595 nm, and 100 μL was then added to each well. Plates were covered, sealed with parafilm, and incubated at 37 °C for 48 h. After incubation, aliquots were removed, diluted, and plated in Middlebrook 7H10 agar plus 10% OADC. Plates were incubated at 37 °C for 4 weeks, and CFU were counted. CFU numbers were expressed as log10(CFU/mL).

[3] = tested on: M. tuberculosis H37Ra in RAW 264.7 macrophages; experiment: Therapeutic potential in M. tuberculosis-infected RAW 264.7 cells (CFU); type: cell-based, Mycobacterium tuberculosis; details: for effect on M. tuberculosis in RAW 264.7: DE 15 μM, CA 30 and 15 μM, 24 h and 48 h
Procedure: For the infection test with M. tuberculosis H37Ra, RAW 264.7 were seeded in 96-well culture plates at a density of 4 × 10^3 cells/well in DMEM medium (with 10% FBS, without antibiotics) and incubated overnight at 37 °C with 5% CO2 [20]. Infection of RAW 264.7 cells with M. tuberculosis was performed at a multiplicity of infection of 1:1 for 3 h at 37 °C with 5% CO2. The medium with non-internalized bacteria was removed and infected cells were then treated with the tested substances in DMEM:CP (15 µM, 7.5 µM, and 3.25 µM), CA (30 µM), and DE (15 µM) for 24 h and CA (30 µM and 15 µM) and DE (15 µM) for 48 h. Macrophages were lysed after incubations with 0.1% Triton–X100, and these suspensions were diluted and plated on Middlebrook 7H10 plus 10% OADC. Plates were incubated for 4 weeks at 37 °C and data were expressed as log10(CFU/well).

Vero E6 cells = experiment: Cytotoxicity on Vero E6 cells (MTT); type: cell-based, monkey; details: 24 h; for effect on Vero E6 cell viability: 30 to 120 µM, MTT; for IC50: Primates, Vero C1008, estimated
Procedure: Cytotoxicity was evaluated using the MTT method. For this purpose, two cell lines were tested: Vero E6 and HepG2. Both cell lines were seeded at 1 × 10^4 cells/well in 96-well microtiter plates and incubated overnight to adhere. The culture medium was carefully aspirated and replaced with 100 µL DMEM plus 100 µL of test compound solutions (CP, CA, and DE), yielding final concentrations ranging from 30 to 120 µM (1% DMSO, v/v). Cells were incubated with test compounds for 24 h at 37 °C in a 5% CO2 atmosphere. MTT solution (0.5 mg/mL) was subsequently added, and cells were incubated for an additional 3 h. The resulting formazan crystals were dried at room temperature for 24 h and dissolved in DMSO. Absorbance was measured at 570 nm (microplate reader EL800, BioTek, Winooski, VT, USA). Cell viability was calculated as previously described in the RAW 264.7 cell viability assay section.

Artemia salina = Artemia salina toxicity test; details: 24 h; for effect on A. salina nauplii survival: 30 to 120 µM; for IC50: Artemia salina, estimated
Procedure: Artemia salina (brine shrimp) survival was determined after incubation with CP and its analogues following the method described by Magalhães et al.. A. salina cysts were purchased from a local aquarium store and hatched (0.5 g cysts/L) in modified artificial seawater (35 g/L sea salt) supplemented with dried yeast (6 mg/L). Aeration was provided using an aquarium air pump connected to a line extending to the bottom of the hatching vessel. After 2 days incubation (in a 23–25 °C room), nauplii were collected using a Pasteur pipette after attracting the organisms to one side of the vessel with a light source. Test compounds were serially diluted 2-fold (ranging from 30 to 120 µM) in 96-well microplates containing 100 µL of 0.9% NaCl solution with dried yeast (6 mg/L). All experiments were performed in quadruplicate with a final DMSO concentration of 2.5%. Vehicle control wells (with 2.5% DMSO) were included in the experiment. A suspension containing 8–12 nauplii in 100 µL was added to each well, and the plates were incubated at 23–25 °C for 24 h. The number of live and dead (non-motile) nauplii in each well was then counted under a microscope. Nauplii were considered dead if they remained immobile for 10 s under light exposure. The survival percentage for each test group was calculated relative to the control group (2.5% DMSO), which was set as 100%.

[4] = 8 h pre-incubation, immediately after 2 h of infection

SMILES | effect on RAW 264.7 cell viability (RAW 264.7 cells; 24 h incubation, 3.25 to 30 µM) | effect on RAW 264.7 cell viability (RAW 264.7 cells; 48 h incubation) | inhibitory concentration against M. smegmatis [1] | decrease of CFU counts after pre-incubation, M. smegmatis ([2]; 30 μM, 8 h pre-incubation, immediately after 2 h of infection) [log10] | inhibitory concentration against M. tuberculosis (M. tuberculosis H37Ra) | effect on M. tuberculosis in RAW 264.7 [3] | effect on Vero E6 cell viability (Vero E6 cells) | IC50 (Vero E6 cells) [µM] | effect on A. salina nauplii survival (Artemia salina) | IC50 (Artemia salina) [µM] | reduction of bacterial loads after pre-incubation, M. smegmatis [2, 4] [log10] | reduction of CFU counts after re-treatment, M. smegmatis [2] [log10] | effect on M. tuberculosis in RAW 264.7, lower concentrations ([3]; 7.5 µM and 3.25 µM, 24 h) | decrease in CFU counts, M. tuberculosis in RAW 264.7 ([3]; 15 μM, 24 h of incubation) [log10]
O=C(O)C1=Cc2c([nH]c3ccccc23)C(C(=O)O)=Cc2c1[nH]c1ccccc21 [CA, caulerpinic acid] | did not affect viability at any of the concentrations tested | did not affect cell viability at any concentration evaluated | higher than 30 μM | 0.407 | greater than 30 μM | neither DE nor CA showed inhibitory effects at either timepoint | did not significantly reduce cell viability | > 120 | did not affect nauplii survival rates | > 120 |  |  |  | 
COC(=O)/C1=C/c2c([nH]c3ccccc23)/C(C(=O)OC)=C\c2c1[nH]c1ccccc21 [CP, Caulerpin] | affected cell viability at the concentration of 30 μM | affected cell viability at the 2 highest concentrations tested, 15 and 30 μM | higher than 15 μM |  | greater than 15 μM |  | did not significantly reduce cell viability | > 120 | did not affect nauplii survival rates | > 120 | 0.360 | 0.287 | no inhibitory effect | 0.250
CCOC(=O)/C1=C/c2c([nH]c3ccccc23)/C(C(=O)OCC)=C\c2c1[nH]c1ccccc21 [DE, (6E,13E)-diethyl 5,12-dihydrocycloocta[1,2-b:5,6-b′]diindole-6,13-dicarboxylate] | affected cell viability at the concentration of 30 μM | did not affect cell viability at any concentration evaluated | higher than 15 μM |  | greater than 15 μM | neither DE nor CA showed inhibitory effects at either timepoint | did not significantly reduce cell viability | > 120 | did not affect nauplii survival rates | > 120 | 0.402 | 0.182 |  | 
